Measured values from patent publication US11077115B2, “Rorgamma modulators and uses thereof” (Genfit, priority 2017, dated 2021).
Where a name gives a salt, the structure may show the parent alone.

First: Cc1ccc(C(NC(=O)Cc2cc(N3CCS(=O)(=O)CC3)ccc2C)c2ccccc2)c(N2CCOCC2)c1 (centres unmarked) (as salt: HCl) [Cpd. 7, 2-[5-(1,1-dioxo-1-thiomorpholin-4-yl)-2-methylphenyl]-N-{[4-methyl-2-(morpholin-4-yl)phenyl](phenyl)methyl}acetamide]
Second: Cc1ccc(C(NC(=O)Cc2ccc(N3CCS(=O)(=O)CC3)cc2)c2ccccc2)c(N2CC3CC3C2)c1 (centres unmarked) (as salt: HCl) [Cpd. 22, N-[(2-{3-azabicyclo[3.1.0]hexan-3-yl}-4-methylphenyl)(phenyl)methyl]-2-[4-(1,1-dioxo-1-thiomorpholin-4-yl)phenyl]acetamide]
The melting point of the first is higher: 219 °C for the first, 104 °C for the second.

Going from `Cc1ccc(C(NC(=O)Cc2ccc(N3CCS(=O)(=O)CC3)c(O)c2)c2ccc(C)o2)c(N2CCCCC2)c1` (centres unmarked) (as salt: HCl) [Cpd. 61, 2-[4-(1,1-dioxo-1-thiomorpholin-4-yl)-3-hydroxyphenyl]-N-{[4-methyl-2-(piperidin-1-yl)phenyl](5-methylfuran-2-yl)methyl}acetamide] to `Cc1ccc(C(NC(=O)Cc2ccc(N3CCS(=O)(=O)CC3)cc2C)c2ccc(C)o2)c(N2CCCCC2)c1` (centres unmarked) (as salt: HCl) [Cpd. 18, 2-[4-(1,1-dioxo-1-thiomorpholin-4-yl)-2-methylphenyl]-N-{[4-methyl-2-(piperidin-1-yl)phenyl](5-methylfuran-2-yl)methyl}acetamide], the melting point falls from 105 °C to 96 °C.

Going from `COc1ccc(C(NC(=O)C2(c3cnc(N4CCS(=O)(=O)CC4)nc3)CC2)c2ccc(C)o2)c(C)c1` (centres unmarked) (as salt: HCl) [Cpd. 57, 1-[2-(1,1-dioxo-1-thiomorpholin-4-yl)pyrimidin-5-yl]-N-[(4-methoxy-2-methylphenyl)(5-methylfuran-2-yl)methyl]cyclopropane-1-carboxamide] to `COc1ccc(C(NC(=O)C2(c3ccc(N4CCS(=O)(=O)CC4)cc3)CC2)c2ccc(C)o2)c(C)c1` (centres unmarked) (as salt: HCl) [Cpd. 44, 1-[4-(1,1-dioxo-1-thiomorpholin-4-yl)phenyl]-N-[(4-methoxy-2-methylphenyl)(5-methylfuran-2-yl)methyl]cyclopropane-1-carboxamide], the melting point falls from 101 °C to 77 °C.

Going from `Cc1ccc(C(NC(=O)C2(c3cc(N4CCS(=O)(=O)CC4)ccc3C)CC2)c2ccc(C)o2)c(C)c1` (centres unmarked) (as salt: HCl) [Cpd. 70, N-[(2,4-dimethylphenyl)(5-methylfuran-2-yl)methyl]-1-[5-(1,1-dioxo-1-thiomorpholin-4-yl)-2-methylphenyl]cyclopropane-1-carboxamide] to `Cc1ccc(C(NC(=O)C2(c3ncc(N4CCS(=O)(=O)CC4)cc3C)CC2)c2ccc(C)o2)c(C)c1` (centres unmarked) (as salt: HCl) [Cpd. 72, N-[(2,4-dimethylphenyl)(5-methylfuran-2-yl)methyl]-1-[5-(1,1-dioxo-1-thiomorpholin-4-yl)-3-methylpyridin-2-yl]cyclopropane-1-carboxamide], the melting point rises from 86 °C to 87 °C.

Going from `Cc1ccc(C(NC(=O)Cc2cnc(N3CCS(=O)(=O)CC3)nc2C)c2ccc(C)o2)c(N2CCCCC2)c1` (centres unmarked) (as salt: HCl) [Cpd. 38, 2-[2-(1,1-dioxo-1-thiomorpholin-4-yl)-4-methylpyrimidin-5-yl]-N-{[4-methyl-2-(piperidin-1-yl)phenyl](5-methylfuran-2-yl)methyl}acetamide] to `Cc1ccc(C(NC(=O)Cc2ccc(N3CCS(=O)(=O)CC3)cn2)c2ccc(C)o2)c(N2CCCCC2)c1` (centres unmarked) (as salt: HCl) [Cpd. 47, 2-[5-(1,1-dioxo-1-thiomorpholin-4-yl)pyridin-2-yl]-N-{[4-methyl-2-(piperidin-1-yl)phenyl](5-methylfuran-2-yl)methyl}acetamide], the melting point rises from 99 °C to 102 °C.

Compared with `Cc1ccc(C(NC(=O)C(C)(C)c2ccc(N3CCS(=O)(=O)CC3)cc2)c2ccc(C)o2)c(C)c1` (centres unmarked) (as salt: HCl) [Cpd. 40, N-[(2,4-dimethylphenyl)(5-methylfuran-2-yl)methyl]-2-[4-(1,1-dioxo-1-thiomorpholin-4-yl)phenyl]-2-methylpropanamide], `Cc1ccc(C(NC(=O)C2(c3ccc(N4CCS(=O)(=O)CC4)cn3)CC2)c2ccc(C)o2)c(C)c1` (centres unmarked) (as salt: HCl) [Cpd. 73, N-[(2,4-dimethylphenyl)(5-methylfuran-2-yl)methyl]-1-[5-(1,1-dioxo-1-thiomorpholin-4-yl)pyridin-2-yl]cyclopropane-1-carboxamide] is higher in melting point: 67 °C for the first, 71 °C for the second.

Going from `O=C(Cc1ccc(N2CCS(=O)(=O)CC2)cc1)NC(c1ccccc1)c1ccccc1N1CCCCC1` (centres unmarked) (as salt: HCl) [Cpd. 1, 2-[4-(1,1-dioxo-1-thiomorpholin-4-yl)phenyl]-N-{phenyl[2-(piperidin-1-yl)phenyl]methyl}acetamide] to `Cc1ccc(C(NC(=O)Cc2ccc(N3CCS(=O)(=O)CC3)cc2)c2ccc(C)o2)c(C(F)(F)F)c1` (centres unmarked) (as salt: HCl) [Cpd. 24, 2-[4-(1,1-dioxo-1-thiomorpholin-4-yl)phenyl]-N-{[4-methyl-2-(trifluoromethyl)phenyl](5-methylfuran-2-yl)methyl}acetamide], the melting point falls from 202 °C to 90 °C.

Compared with `Cc1ccc(C(NC(=O)Cc2cnc(N3CCS(=O)(=O)CC3)nc2)c2ccc(C)o2)c(Br)c1` (centres unmarked) (as salt: HCl) [Cpd. 34, N-[(2-bromo-4-methylphenyl)(5-methylfuran-2-yl)methyl]-2-[2-(1,1-dioxo-1-thiomorpholin-4-yl)pyrimidin-5-yl]acetamide], `Cc1ccc(C(NC(=O)Cc2cnc(N3CCS(=O)(=O)CC3)nc2)c2ccc(C)o2)c(N2CC3CC3C2)c1` (centres unmarked) (as salt: HCl) [Cpd. 36, N-[(2-{3-azabicyclo[3.1.0]hexan-3-yl}-4-methylphenyl)(5-methylfuran-2-yl)methyl]-2-[2-(1,1-dioxo-1-thiomorpholin-4-yl)pyrimidin-5-yl]acetamide] is lower in melting point: 199 °C for the first, 105 °C for the second.

First: Cc1ccc(C(NC(=O)Cc2cnc(N3CCOCC3)nc2)c2ccc(C)o2)c(N2CCCCC2)c1 (centres unmarked) (as salt: HCl) [Cpd. 26, N-{[4-methyl-2-(piperidin-1-yl)phenyl](5-methylfuran-2-yl)methyl}-2-[2-(morpholin-4-yl)pyrimidin-5-yl]acetamide]
Second: COc1ccc(C(NC(=O)Cc2ccc(N3CCS(=O)(=O)CC3)c(C)c2)c2ccc(C)o2)c(N2CC3CC3C2)c1 (centres unmarked) (as salt: HCl) [Cpd. 16, N-[(2-{3-azabicyclo[3.1.0]hexan-3-yl}-4-methoxyphenyl)(5-methylfuran-2-yl)methyl]-2-[4-(1,1-dioxo-1-thiomorpholin-4-yl)-3-methylphenyl]acetamide]
The melting point of the first is lower: 69 °C for the first, 103 °C for the second.

First: COc1ccc(C2(C(=O)NC(c3ccc(C)o3)c3ccc(C)cc3C)CC2)cc1N1CCS(=O)(=O)CC1 (centres unmarked) (as salt: HCl) [Cpd. 69, N-[(2,4-dimethylphenyl)(5-methylfuran-2-yl)methyl]-1-[3-(1,1-dioxo-1-thiomorpholin-4-yl)-4-methoxyphenyl]cyclopropane-1-carboxamide]
Second: Cc1ccc(C(NC(=O)C2(c3ccc(N4CCS(=O)(=O)CC4)cc3)CC2)c2ccc(Cl)o2)cc1 (centres unmarked) (as salt: HCl) [Cpd. 67, N-[(5-chlorofuran-2-yl)(4-methylphenyl)methyl]-1-[4-(1,1-dioxo-1-thiomorpholin-4-yl)phenyl]cyclopropane-1-carboxamide]
The melting point of the first is higher: 174 °C for the first, 157 °C for the second.
